Results as given in PMC5341858, “Molecular regulation of apoptotic machinery and lipid metabolism by mTORC1/mTORC2 dual inhibitors in preclinical models of HER2+/PIK3CAmut breast cancer” (Oncotarget, 2016).

Key:
Experiment in all cases: KINOMEscan binding assay
PIK3CA = PIK3CA (Homo sapiens, UniProt P42336)
Source text: (§1) IC50 values were generated using Graphpad PRISM 5 software.

p38-alpha = molecular target: T1, p38-alpha (Homo sapiens, UniProt Q16539); details: 1000 nM, percent control relative to vehicle
T1 construct: purchased DiscoveRx KINOMEscan
Source text: as §1

ABL1-phosphorylated = molecular target: T2, ABL1-phosphorylated (Homo sapiens, UniProt P00519); details: 1000 nM, percent control relative to vehicle
T2 construct: purchased DiscoveRx KINOMEscan
Source text: as §1

IGF1R = molecular target: T3, IGF1R (Homo sapiens, UniProt P08069); details: 1000 nM, percent control relative to vehicle
T3 construct: purchased DiscoveRx KINOMEscan
Source text: as §1

PIM3 = molecular target: T4, PIM3 (Homo sapiens, UniProt Q86V86); details: 1000 nM, percent control relative to vehicle
T4 construct: purchased DiscoveRx KINOMEscan
Source text: as §1

PDGFRA = molecular target: T5, PDGFRA (Homo sapiens, UniProt P16234); details: 1000 nM, percent control relative to vehicle
T5 construct: purchased DiscoveRx KINOMEscan
Source text: as §1

ERBB2 = molecular target: T6, ERBB2 (Homo sapiens, UniProt P04626); details: 1000 nM, percent control relative to vehicle
T6 construct: purchased DiscoveRx KINOMEscan
Source text: as §1

FAK = molecular target: T7, FAK (Homo sapiens, UniProt Q05397); details: 1000 nM, percent control relative to vehicle
T7 construct: purchased DiscoveRx KINOMEscan
Source text: as §1

EGFR = molecular target: T8, EGFR (Homo sapiens, UniProt P00533); details: 1000 nM, percent control relative to vehicle
T8 construct: purchased DiscoveRx KINOMEscan
Source text: as §1

CHEK1 = molecular target: T9, CHEK1 (Homo sapiens, UniProt O14757); details: 1000 nM, percent control relative to vehicle
T9 construct: purchased DiscoveRx KINOMEscan
Source text: as §1

BMPR2 = molecular target: T10, BMPR2 (Homo sapiens, UniProt Q13873); details: 1000 nM, percent control relative to vehicle
T10 construct: purchased DiscoveRx KINOMEscan
Source text: as §1

TSSK1B = molecular target: T11, TSSK1B (Homo sapiens, UniProt Q9BXA7); details: 1000 nM, percent control relative to vehicle
T11 construct: purchased DiscoveRx KINOMEscan
Source text: as §1

BRAF = molecular target: T12, BRAF (Homo sapiens, UniProt P15056); details: 1000 nM, percent control relative to vehicle
T12 construct: purchased DiscoveRx KINOMEscan
Source text: as §1

MET = molecular target: T13, MET (Homo sapiens, UniProt P08581); details: 1000 nM, percent control relative to vehicle
T13 construct: purchased DiscoveRx KINOMEscan
Source text: as §1

ZAP70 = molecular target: T14, ZAP70 (Homo sapiens, UniProt P43403); details: 1000 nM, percent control relative to vehicle
T14 construct: purchased DiscoveRx KINOMEscan
Source text: as §1

CDK3 = molecular target: T15, CDK3 (Homo sapiens, UniProt Q00526); details: 1000 nM, percent control relative to vehicle
T15 construct: purchased DiscoveRx KINOMEscan
Source text: as §1

PDGFRB = molecular target: T16, PDGFRB (Homo sapiens, UniProt P09619); details: 1000 nM, percent control relative to vehicle
T16 construct: purchased DiscoveRx KINOMEscan
Source text: as §1

PAK1 = molecular target: T17, PAK1 (Homo sapiens, UniProt Q13153); details: 1000 nM, percent control relative to vehicle
T17 construct: purchased DiscoveRx KINOMEscan
Source text: as §1

JNK2 = molecular target: T18, JNK2 (Homo sapiens, UniProt P45984); details: 1000 nM, percent control relative to vehicle
T18 construct: purchased DiscoveRx KINOMEscan
Source text: as §1

[1] = molecular target: T19, RSK2 (Kin.Dom.1-N- terminal) (Homo sapiens, UniProt P51812); details: 1000 nM, percent control relative to vehicle
T19 construct: RSK2 (Kin.Dom.1-N- terminal); purchased DiscoveRx KINOMEscan
Source text: as §1

CSF1R = molecular target: T20, CSF1R (Homo sapiens, UniProt P07333); details: 1000 nM, percent control relative to vehicle
T20 construct: purchased DiscoveRx KINOMEscan
Source text: as §1

p38-beta = molecular target: T21, p38-beta (Homo sapiens, UniProt Q15759); details: 1000 nM, percent control relative to vehicle
T21 construct: purchased DiscoveRx KINOMEscan
Source text: as §1

FLT3 = molecular target: T22, FLT3 (Homo sapiens, UniProt P36888); details: 1000 nM, percent control relative to vehicle
T22 construct: purchased DiscoveRx KINOMEscan
Source text: as §1

ROCK2 = molecular target: T23, ROCK2 (Homo sapiens, UniProt O75116); details: 1000 nM, percent control relative to vehicle
T23 construct: purchased DiscoveRx KINOMEscan
Source text: as §1

MLK1 = molecular target: T24, MLK1 (Homo sapiens, UniProt P80192); details: 1000 nM, percent control relative to vehicle
T24 construct: purchased DiscoveRx KINOMEscan
Source text: as §1

PLK1 = molecular target: T25, PLK1 (Homo sapiens, UniProt P53350); details: 1000 nM, percent control relative to vehicle
T25 construct: purchased DiscoveRx KINOMEscan
Source text: as §1

CSNK1D = molecular target: T26, CSNK1D (Homo sapiens, UniProt P48730); details: 1000 nM, percent control relative to vehicle
T26 construct: purchased DiscoveRx KINOMEscan
Source text: as §1

PIM1 = molecular target: T27, PIM1 (Homo sapiens, UniProt P11309); details: 1000 nM, percent control relative to vehicle
T27 construct: purchased DiscoveRx KINOMEscan
Source text: as §1

MEK2 = molecular target: T28, MEK2 (Homo sapiens, UniProt P36507); details: 1000 nM, percent control relative to vehicle
T28 construct: purchased DiscoveRx KINOMEscan
Source text: as §1

AKT2 = molecular target: T29, AKT2 (Homo sapiens, UniProt P31751); details: 1000 nM, percent control relative to vehicle
T29 construct: purchased DiscoveRx KINOMEscan
Source text: as §1

PCTK1 = molecular target: T30, PCTK1 (Homo sapiens, UniProt Q00536); details: 1000 nM, percent control relative to vehicle
T30 construct: purchased DiscoveRx KINOMEscan
Source text: as §1

PIK3CG = PIK3CG (Homo sapiens, UniProt P48736)
Source text: as §1

PLK4 = molecular target: T31, PLK4 (Homo sapiens, UniProt O00444); details: 1000 nM, percent control relative to vehicle
T31 construct: purchased DiscoveRx KINOMEscan
Source text: as §1

PIK3C2B = molecular target: T32, PIK3C2B (Homo sapiens, UniProt O00750); details: 1000 nM, percent control relative to vehicle
T32 construct: purchased DiscoveRx KINOMEscan
Source text: as §1

[2] = molecular target: T33, JAK3 (JH1domain-catalytic) (Homo sapiens, UniProt P52333); details: 1000 nM, percent control relative to vehicle
T33 construct: JAK3 (JH1domain-catalytic); purchased DiscoveRx KINOMEscan
Source text: as §1

SRC = molecular target: T34, SRC (Homo sapiens, UniProt P12931); details: 1000 nM, percent control relative to vehicle
T34 construct: purchased DiscoveRx KINOMEscan
Source text: as §1

PLK3 = molecular target: T35, PLK3 (Homo sapiens, UniProt Q9H4B4); details: 1000 nM, percent control relative to vehicle
T35 construct: purchased DiscoveRx KINOMEscan
Source text: as §1

BTK = molecular target: T36, BTK (Homo sapiens, UniProt Q06187); details: 1000 nM, percent control relative to vehicle
T36 construct: purchased DiscoveRx KINOMEscan
Source text: as §1

MAP3K4 = molecular target: T37, MAP3K4 (Homo sapiens, UniProt Q9Y6R4); details: 1000 nM, percent control relative to vehicle
T37 construct: purchased DiscoveRx KINOMEscan
Source text: as §1

KIT(D816V) = molecular target: T38, KIT(D816V) (Homo sapiens, UniProt P10721, D816V); details: 1000 nM, percent control relative to vehicle
T38 construct: purchased DiscoveRx KINOMEscan
Source text: as §1

BRAF (V600E) = molecular target: T39, BRAF (V600E) (Homo sapiens, UniProt P15056, V600E); details: 1000 nM, percent control relative to vehicle
T39 construct: purchased DiscoveRx KINOMEscan
Source text: as §1

RIOK2 = molecular target: T40, RIOK2 (Homo sapiens, UniProt Q9BVS4); details: 1000 nM, percent control relative to vehicle
T40 construct: purchased DiscoveRx KINOMEscan
Source text: as §1

INSR = molecular target: T41, INSR (Homo sapiens, UniProt P06213); details: 1000 nM, percent control relative to vehicle
T41 construct: purchased DiscoveRx KINOMEscan
Source text: as §1

ALK = molecular target: T42, ALK (Homo sapiens, UniProt Q9UM73); details: 1000 nM, percent control relative to vehicle
T42 construct: purchased DiscoveRx KINOMEscan
Source text: as §1

[3] = 1000 nM, percent control relative to vehicle

Chain of PIK3CG (P48736 whole entry): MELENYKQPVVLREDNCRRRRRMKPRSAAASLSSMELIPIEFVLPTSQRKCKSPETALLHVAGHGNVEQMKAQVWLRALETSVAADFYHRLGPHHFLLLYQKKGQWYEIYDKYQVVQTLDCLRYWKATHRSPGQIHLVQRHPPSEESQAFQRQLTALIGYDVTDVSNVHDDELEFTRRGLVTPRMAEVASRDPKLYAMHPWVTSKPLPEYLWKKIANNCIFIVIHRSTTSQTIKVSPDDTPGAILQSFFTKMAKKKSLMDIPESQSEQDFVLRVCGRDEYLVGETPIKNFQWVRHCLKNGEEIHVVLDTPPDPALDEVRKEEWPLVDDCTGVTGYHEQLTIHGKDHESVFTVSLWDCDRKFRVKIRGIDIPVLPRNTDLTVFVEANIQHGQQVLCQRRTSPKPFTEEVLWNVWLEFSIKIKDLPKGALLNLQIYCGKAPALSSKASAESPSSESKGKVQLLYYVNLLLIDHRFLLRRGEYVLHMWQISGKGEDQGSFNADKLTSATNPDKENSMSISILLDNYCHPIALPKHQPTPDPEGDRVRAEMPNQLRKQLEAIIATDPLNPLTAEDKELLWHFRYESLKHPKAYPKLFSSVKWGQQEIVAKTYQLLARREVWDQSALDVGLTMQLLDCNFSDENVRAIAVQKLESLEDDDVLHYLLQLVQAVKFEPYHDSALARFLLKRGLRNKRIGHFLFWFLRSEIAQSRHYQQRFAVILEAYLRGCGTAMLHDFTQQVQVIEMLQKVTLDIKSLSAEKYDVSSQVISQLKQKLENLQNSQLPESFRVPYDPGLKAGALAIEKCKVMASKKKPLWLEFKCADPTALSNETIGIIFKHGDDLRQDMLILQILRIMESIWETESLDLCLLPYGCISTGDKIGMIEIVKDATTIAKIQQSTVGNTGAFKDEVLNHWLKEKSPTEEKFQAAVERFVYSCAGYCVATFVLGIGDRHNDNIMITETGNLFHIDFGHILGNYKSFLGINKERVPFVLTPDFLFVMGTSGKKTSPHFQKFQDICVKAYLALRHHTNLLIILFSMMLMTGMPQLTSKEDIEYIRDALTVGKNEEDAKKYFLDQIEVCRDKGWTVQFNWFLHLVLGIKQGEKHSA
Chain of PIK3CA (P42336 whole entry): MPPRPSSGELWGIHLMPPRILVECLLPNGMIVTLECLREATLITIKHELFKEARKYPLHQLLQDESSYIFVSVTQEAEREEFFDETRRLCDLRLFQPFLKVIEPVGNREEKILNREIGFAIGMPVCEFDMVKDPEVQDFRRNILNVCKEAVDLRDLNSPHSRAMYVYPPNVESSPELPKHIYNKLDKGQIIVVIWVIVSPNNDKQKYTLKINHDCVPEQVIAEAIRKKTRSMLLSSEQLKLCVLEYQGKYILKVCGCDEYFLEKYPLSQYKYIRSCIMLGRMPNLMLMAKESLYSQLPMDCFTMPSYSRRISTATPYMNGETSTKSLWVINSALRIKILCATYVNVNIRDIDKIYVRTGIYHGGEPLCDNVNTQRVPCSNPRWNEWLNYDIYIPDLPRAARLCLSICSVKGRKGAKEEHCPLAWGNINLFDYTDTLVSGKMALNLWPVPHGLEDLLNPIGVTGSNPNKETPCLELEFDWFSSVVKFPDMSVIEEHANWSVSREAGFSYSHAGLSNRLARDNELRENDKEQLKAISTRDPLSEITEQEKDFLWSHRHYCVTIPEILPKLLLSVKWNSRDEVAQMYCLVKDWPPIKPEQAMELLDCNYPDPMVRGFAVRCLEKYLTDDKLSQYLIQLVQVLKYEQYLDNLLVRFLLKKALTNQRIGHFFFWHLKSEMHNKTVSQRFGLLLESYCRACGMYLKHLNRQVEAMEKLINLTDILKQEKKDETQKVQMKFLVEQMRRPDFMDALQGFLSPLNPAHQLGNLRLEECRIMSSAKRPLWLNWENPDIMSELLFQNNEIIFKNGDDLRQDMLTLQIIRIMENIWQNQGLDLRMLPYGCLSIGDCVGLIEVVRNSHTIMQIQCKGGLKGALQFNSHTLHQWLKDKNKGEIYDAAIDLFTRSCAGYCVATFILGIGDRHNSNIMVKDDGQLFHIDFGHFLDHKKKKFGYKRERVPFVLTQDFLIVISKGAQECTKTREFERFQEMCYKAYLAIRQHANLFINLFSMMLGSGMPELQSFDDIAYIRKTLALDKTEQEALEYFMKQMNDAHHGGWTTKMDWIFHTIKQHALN
T7 sequence (Q05397 whole entry): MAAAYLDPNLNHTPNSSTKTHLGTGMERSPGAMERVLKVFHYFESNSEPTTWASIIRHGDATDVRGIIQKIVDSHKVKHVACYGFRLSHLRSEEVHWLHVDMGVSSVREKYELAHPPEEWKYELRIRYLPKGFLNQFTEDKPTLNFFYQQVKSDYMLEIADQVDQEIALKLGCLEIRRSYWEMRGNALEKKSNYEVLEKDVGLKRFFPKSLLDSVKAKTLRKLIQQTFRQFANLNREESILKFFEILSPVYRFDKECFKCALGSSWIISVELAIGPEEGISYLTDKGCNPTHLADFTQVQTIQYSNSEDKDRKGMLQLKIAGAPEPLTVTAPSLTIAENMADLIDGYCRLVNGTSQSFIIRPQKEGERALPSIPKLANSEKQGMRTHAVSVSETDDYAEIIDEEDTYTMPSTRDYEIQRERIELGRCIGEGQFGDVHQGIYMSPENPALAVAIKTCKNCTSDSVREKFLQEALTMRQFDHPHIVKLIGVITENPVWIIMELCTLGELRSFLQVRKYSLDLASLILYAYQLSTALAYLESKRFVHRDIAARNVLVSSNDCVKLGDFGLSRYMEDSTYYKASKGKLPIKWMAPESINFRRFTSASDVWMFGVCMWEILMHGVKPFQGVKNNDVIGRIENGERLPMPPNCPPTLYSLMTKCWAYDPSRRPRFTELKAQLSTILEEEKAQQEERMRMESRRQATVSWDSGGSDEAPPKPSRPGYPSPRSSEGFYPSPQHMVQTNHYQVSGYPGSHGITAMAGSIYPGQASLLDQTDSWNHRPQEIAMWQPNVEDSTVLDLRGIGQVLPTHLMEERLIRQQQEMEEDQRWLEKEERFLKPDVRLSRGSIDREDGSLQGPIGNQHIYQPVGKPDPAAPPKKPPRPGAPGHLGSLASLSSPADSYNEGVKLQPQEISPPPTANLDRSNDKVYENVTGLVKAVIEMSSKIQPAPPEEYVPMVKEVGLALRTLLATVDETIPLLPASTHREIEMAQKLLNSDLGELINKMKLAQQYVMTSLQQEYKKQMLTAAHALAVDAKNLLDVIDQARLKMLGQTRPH
T9 sequence (O14757 whole entry): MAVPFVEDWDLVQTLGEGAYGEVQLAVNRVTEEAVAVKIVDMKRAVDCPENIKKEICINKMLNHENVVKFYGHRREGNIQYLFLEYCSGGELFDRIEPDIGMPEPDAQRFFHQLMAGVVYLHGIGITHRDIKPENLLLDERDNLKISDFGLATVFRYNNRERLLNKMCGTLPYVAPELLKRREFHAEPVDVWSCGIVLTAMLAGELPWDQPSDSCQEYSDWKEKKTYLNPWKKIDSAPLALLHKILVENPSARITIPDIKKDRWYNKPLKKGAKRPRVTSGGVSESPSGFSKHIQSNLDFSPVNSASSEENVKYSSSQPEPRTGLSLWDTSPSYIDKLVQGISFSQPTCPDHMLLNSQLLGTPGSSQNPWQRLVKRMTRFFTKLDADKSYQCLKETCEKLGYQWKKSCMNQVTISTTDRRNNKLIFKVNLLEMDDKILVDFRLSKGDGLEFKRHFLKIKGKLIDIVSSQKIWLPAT
T41 sequence (P06213 28-1382): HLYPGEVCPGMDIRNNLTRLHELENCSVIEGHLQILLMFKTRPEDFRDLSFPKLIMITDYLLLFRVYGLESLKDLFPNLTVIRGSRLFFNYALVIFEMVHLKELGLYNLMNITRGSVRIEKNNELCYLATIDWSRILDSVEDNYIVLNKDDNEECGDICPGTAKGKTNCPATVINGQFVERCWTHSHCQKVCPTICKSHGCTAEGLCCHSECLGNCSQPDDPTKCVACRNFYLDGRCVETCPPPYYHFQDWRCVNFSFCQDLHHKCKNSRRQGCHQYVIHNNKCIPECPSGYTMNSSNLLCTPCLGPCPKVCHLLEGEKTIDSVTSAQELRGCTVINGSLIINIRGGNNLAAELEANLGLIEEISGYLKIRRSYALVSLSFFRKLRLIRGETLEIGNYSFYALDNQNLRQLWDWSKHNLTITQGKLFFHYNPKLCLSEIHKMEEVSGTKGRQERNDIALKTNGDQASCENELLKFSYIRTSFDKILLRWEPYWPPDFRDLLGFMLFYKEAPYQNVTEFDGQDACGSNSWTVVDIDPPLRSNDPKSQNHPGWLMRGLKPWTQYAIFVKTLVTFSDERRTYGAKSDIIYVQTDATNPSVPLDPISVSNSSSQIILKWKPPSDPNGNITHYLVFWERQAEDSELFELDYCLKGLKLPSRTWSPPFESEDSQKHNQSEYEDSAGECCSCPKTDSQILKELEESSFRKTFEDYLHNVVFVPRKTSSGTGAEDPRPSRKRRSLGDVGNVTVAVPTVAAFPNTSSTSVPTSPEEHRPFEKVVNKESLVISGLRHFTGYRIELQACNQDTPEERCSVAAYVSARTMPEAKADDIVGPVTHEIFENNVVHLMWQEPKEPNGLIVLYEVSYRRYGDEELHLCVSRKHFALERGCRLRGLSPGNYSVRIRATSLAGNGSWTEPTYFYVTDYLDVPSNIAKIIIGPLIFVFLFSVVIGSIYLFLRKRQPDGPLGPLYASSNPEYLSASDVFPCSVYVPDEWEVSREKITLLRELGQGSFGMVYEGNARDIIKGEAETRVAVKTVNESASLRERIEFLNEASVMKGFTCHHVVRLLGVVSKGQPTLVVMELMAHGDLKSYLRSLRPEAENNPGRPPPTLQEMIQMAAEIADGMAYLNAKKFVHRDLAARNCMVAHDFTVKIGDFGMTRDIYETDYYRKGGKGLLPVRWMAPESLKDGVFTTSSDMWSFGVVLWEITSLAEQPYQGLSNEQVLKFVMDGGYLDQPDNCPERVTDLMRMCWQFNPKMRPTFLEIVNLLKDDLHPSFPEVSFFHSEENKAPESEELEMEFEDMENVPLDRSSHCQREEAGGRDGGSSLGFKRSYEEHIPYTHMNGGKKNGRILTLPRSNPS

CNC(=O)c1cccc(-c2ccc3c(N4C5CCC4COC5)nc(N4CCOC[C@@H]4C)nc3n2)c1 [MTI-31]
Kd (PIK3CA): > 1000 nM | % Control (PIK3CA; [3]): 100% | % Control (p38-alpha): 100% | % Control (ABL1-phosphorylated): 70% | % Control (IGF1R): 100% | % Control (PIM3): 100% | % Control (PDGFRA): 93% | % Control (ERBB2): 97% | % Control (FAK): 89% | % Control (EGFR): 94% | % Control (CHEK1): 83% | % Control (BMPR2): 88% | % Control (TSSK1B): 100% | % Control (BRAF): 80% | % Control (MET): 100% | % Control (ZAP70): 72% | % Control (CDK3): 99% | % Control (PDGFRB): 100% | % Control (PAK1): 100% | % Control (JNK2): 96% | % Control [1]: 78% | % Control (CSF1R): 99% | % Control (p38-beta): 100% | % Control (FLT3): 100% | % Control (ROCK2): 73% | % Control (MLK1): 100% | % Control (PLK1): 78% | % Control (CSNK1D): 80% | % Control (PIM1): 100% | % Control (MEK2): 75% | % Control (AKT2): 94% | % Control (PCTK1): 87% | Kd (PIK3CG): > 1000 nM | % Control (PIK3CG; [3]): 100% | % Control (PLK4): 87% | % Control (PIK3C2B): 100% | % Control [2]: 82% | % Control (SRC): 100% | % Control (PLK3): 92% | % Control (BTK): 68% | % Control (MAP3K4): 100% | % Control (KIT(D816V)): 97% | % Control (BRAF (V600E)): 93% | % Control (RIOK2): 80% | % Control (INSR): 100% | % Control (ALK): 78%
